This is an account of results in patent US10004701B2, “Methods and compositions for treating infection” (UNIVERSITY OF ROCHESTER, priority 2012, dated 2018).

Counter-ions that a name gives are not always drawn. Like-named read-outs stand apart in the source and are kept apart here.

What all share (assay): AK assay 384-well format, Prestwick library screening
One assay deals with K. pneumoniae. In kind it is cell-based, Klebsiella pneumoniae. The conditions noted are these: 50 μM final drug concentration; for fold induction at 50 µM: Klebsiella pneumoniae, 3 h.
The test system of assay [1] is A. baumannii strain 98-37-09. Type of assay: cell-based, Acinetobacter baumannii. The conditions noted are these: 50 μM final drug concentration; for fold induction at 50 µM: Acinetobacter baumannii, 983709, 3 h.
The next assay concerns E. cloacae. Type of assay: cell-based, Enterobacter cloacae. The conditions noted are these: 50 μM final drug concentration; for fold induction at 50 µM: Enterobacter cloacae, 3 h.
For a further assay, the system named is E. faecium. Type of assay: cell-based, Enterococcus faecium. The note with it: 50 μM final drug concentration; for fold induction at 50 µM: Enterococcus faecium, 3 h.
The next assay relates to P. aeruginosa. Type of assay: cell-based, Pseudomonas aeruginosa. The conditions noted are these: 50 μM final drug concentration; for fold induction at 50 µM: Pseudomonas aeruginosa, 3 h.
In assay [2] the test system is S. aureus strain USA300-0114. Type of assay: cell-based, Staphylococcus aureus. The note with it: 50 μM final drug concentration; for fold induction at 50 µM: Staphylococcus aureus, USA300, 3 h.
For a further assay, the system named is E. coli. Type of assay: cell-based, Escherichia coli. The note with it: 50 μM final drug concentration; for fold induction at 50 µM: Escherichia coli, 3 h.
Where [3] appears, read: planktonic, cutoff for positive-scoring molecules 3-fold increase, read-out: AK-based Prestwick Library Screening Results, K. pneumoniae (fold increase in extracellular AK activity).
The mark [4] stands for this setting: planktonic, cutoff for positive-scoring molecules 3-fold increase, read-out: AK-based Prestwick Library Screening Results, A. baumannii (fold increase in extracellular AK activity).
[5] abbreviates: planktonic, cutoff for positive-scoring molecules 3-fold increase, read-out: AK-based Prestwick Library Screening Results, E. cloacae (fold increase in extracellular AK activity).
Setting [6] is: planktonic, cutoff for positive-scoring molecules 3-fold increase, read-out: AK-based Prestwick Library Screening Results, E. faecium (fold increase in extracellular AK activity).
The mark [7] stands for this setting: planktonic, cutoff for positive-scoring molecules 3-fold increase, read-out: AK-based Prestwick Library Screening Results, P. aeruginosa (fold increase in extracellular AK activity).
Setting [8] is: planktonic, cutoff for positive-scoring molecules 3-fold increase, read-out: AK-based Prestwick Library Screening Results, S. aureus (fold increase in extracellular AK activity).
The mark [9] stands for this setting: planktonic, cutoff for positive-scoring molecules 3-fold increase, read-out: AK-based Prestwick Library Screening Results, E. coli (fold increase in extracellular AK activity).
Setting [10] is: 384-well format, cutoff for positive-scoring molecules 3-fold increase, read-out: AK-based Prestwick Library Screening Results, K. pneumoniae (increase in extracellular AK activity).
[11] abbreviates: 384-well format, cutoff for positive-scoring molecules 3-fold increase, read-out: AK-based Prestwick Library Screening Results, A. baumannii (increase in extracellular AK activity).
Where [12] appears, read: 384-well format, cutoff for positive-scoring molecules 3-fold increase, read-out: AK-based Prestwick Library Screening Results, E. cloacae (increase in extracellular AK activity).
[13] abbreviates: 384-well format, cutoff for positive-scoring molecules 3-fold increase, read-out: AK-based Prestwick Library Screening Results, E. faecium (increase in extracellular AK activity).
The mark [14] stands for this setting: 384-well format, cutoff for positive-scoring molecules 3-fold increase, read-out: AK-based Prestwick Library Screening Results, P. aeruginosa (increase in extracellular AK activity).
The mark [15] stands for this setting: 384-well format, cutoff for positive-scoring molecules 3-fold increase, read-out: AK-based Prestwick Library Screening Results, S. aureus (increase in extracellular AK activity).
Where [16] appears, read: cutoff for positive-scoring molecules 3-fold increase, read-out: AK-based Prestwick Library Screening Results, K. pneumoniae (fold increase in extracellular AK activity).
[17] abbreviates: cutoff for positive-scoring molecules 3-fold increase, read-out: AK-based Prestwick Library Screening Results, A. baumannii (fold increase in extracellular AK activity).
Setting [18] is: cutoff for positive-scoring molecules 3-fold increase, read-out: AK-based Prestwick Library Screening Results, E. cloacae (fold increase in extracellular AK activity).
Setting [19] is: cutoff for positive-scoring molecules 3-fold increase, read-out: AK-based Prestwick Library Screening Results, E. faecium (fold increase in extracellular AK activity).
Where [20] appears, read: cutoff for positive-scoring molecules 3-fold increase, read-out: AK-based Prestwick Library Screening Results, P. aeruginosa (fold increase in extracellular AK activity).
The mark [21] stands for this setting: cutoff for positive-scoring molecules 3-fold increase, read-out: AK-based Prestwick Library Screening Results, S. aureus (fold increase in extracellular AK activity).
Setting [22] is: cutoff for positive-scoring molecules 3-fold increase, read-out: AK-based Prestwick Library Screening Results, E. coli (fold increase in extracellular AK activity).

For the compound `CCCCCN(CCCCC)C(=O)C(CCC(=O)O)NC(=O)c1ccc(Cl)c(Cl)c1` (stereo not shown) [Lorglumide sodium salt], the fold induction at 50 µM in the assay with K. pneumoniae (setting [3]) worked out at 0.7; in assay [1] (setting [4]), 0.8; in the assay on E. cloacae (setting [5]), 1.3; in the assay on E. faecium (setting [6]) it was 1; with P. aeruginosa (setting [7]), 0.9; in assay [2] (setting [8]) it was 0.3. In the assay on E. coli (setting [9]), the fold induction at 50 µM stood at 0.9.

As for `CC[C@@H](C(=O)[C@@H](C)[C@@H](O)[C@H](C)CCc1ccc(C)c(O)c1C(=O)O)[C@H]1O[C@](CC)([C@H]2CC[C@](O)(CC)[C@H](C)O2)C[C@@H]1C` [Lasalocid sodium salt], the fold induction at 50 µM came to 0.7 with K. pneumoniae (setting [3]); 2.6 in assay [1] (setting [4]); 1 in the assay on E. cloacae (setting [5]); 0.9 in the assay with E. faecium (setting [6]); 0.7 in the assay on P. aeruginosa (setting [7]); 3.7 in assay [2] (setting [8]). Moreover, the fold induction at 50 µM in the assay on E. coli (setting [9]) is 1.

Turning to `CN1Cc2c(N)cccc2C(c2ccccc2)C1` (stereo not shown) [Nomifensine maleate], the fold induction at 50 µM in the assay with K. pneumoniae (setting [10]) was 0.8; in assay [1] (setting [11]) it was 0.8; with E. cloacae (setting [12]), 1; in the assay on E. faecium (setting [13]) it was 0.9; in the assay on P. aeruginosa (setting [14]) it was 0.8; in assay [2] (setting [15]), 0.7. In addition, the fold induction at 50 µM in the assay with E. coli (384-well format, […], read-out: AK-based Prestwick Library Screening Results, E. coli (increase in extracellular AK activity)) is 0.9.

Consider `CN1CCC(OC(c2ccccc2)c2ccccc2)CC1` [Diphenylpyraline hydrochloride], for which the fold induction at 50 µM with K. pneumoniae (setting [16]) is 1; in assay [1] (setting [17]) it was 1.3; in the assay on E. cloacae (setting [18]), 1.4; with E. faecium (setting [19]) it was 1.1; in the assay with P. aeruginosa (setting [20]) it was 1.1; in assay [2] (setting [21]), 1.2. Also, the fold induction at 50 µM with E. coli (setting [22]) stood at 1.3.

Consider Pridinol methanesulfonate salt, for which, in the assay with K. pneumoniae ([…]), the “AK-based Prestwick Library Screening Results, K. pneumoniae (fold increase in extracellular AK activity)” value is listed as 0.9. The “AK-based Prestwick Library Screening Results, A. baumannii (fold increase in extracellular AK activity)” value in assay [1] ([…]) came out at 1.1. For the same compound, the “AK-based Prestwick Library Screening Results, E. cloacae (fold increase in extracellular AK activity)” value in the assay with E. cloacae ([…]) was 1.6. Moreover, in the assay with E. faecium ([…]), the “AK-based Prestwick Library Screening Results, E. faecium (fold increase in extracellular AK activity)” value is recorded as 1.1. Moreover, the “AK-based Prestwick Library Screening Results, P. aeruginosa (fold increase in extracellular AK activity)” value in the assay on P. aeruginosa ([…]) worked out at 1.1. Besides, in assay [2] ([…]), the “AK-based Prestwick Library Screening Results, S. aureus (fold increase in extracellular AK activity)” value is recorded as 1.2. Also, the “AK-based Prestwick Library Screening Results, E. coli (fold increase in extracellular AK activity)” value in the assay on E. coli ([…]) is given as 1.1.

Take `COc1ccc(C[C@H](N)C(=O)N[C@H]2[C@@H](O)[C@H](n3cnc4c(N(C)C)ncnc43)O[C@@H]2CO)cc1` [Puromycin dihydrochloride]: the fold induction at 50 µM in the assay with K. pneumoniae (planktonic, cutoff for positive 3-fold increase, read-out: AK-based Prestwick Library Screening Results, K. pneumoniae (fold increase in extracellular AK activity)) was 1.1; in assay [1] (planktonic, cutoff for positive 3-fold increase, read-out: AK-based Prestwick Library Screening Results, A. baumannii (fold increase in extracellular AK activity)), 1.6; in the assay on E. cloacae (planktonic, cutoff for positive 3-fold increase, read-out: AK-based Prestwick Library Screening Results, E. cloacae (fold increase in extracellular AK activity)) it was 1.4; in the assay on E. faecium (planktonic, cutoff for positive 3-fold increase, read-out: AK-based Prestwick Library Screening Results, E. faecium (fold increase in extracellular AK activity)), 1.1; in the assay on P. aeruginosa (planktonic, cutoff for positive 3-fold increase, read-out: AK-based Prestwick Library Screening Results, P. aeruginosa (fold increase in extracellular AK activity)) it was 1; in assay [2] (planktonic, cutoff for positive 3-fold increase, read-out: AK-based Prestwick Library Screening Results, S. aureus (fold increase in extracellular AK activity)), 1.1. For the same compound, the fold induction at 50 µM in the assay on E. coli (planktonic, cutoff for positive 3-fold increase, read-out: AK-based Prestwick Library Screening Results, E. coli (fold increase in extracellular AK activity)) came out at 1.1.

With `CC[C@@H](CO)NCCN[C@@H](CC)CO` [Ethambutol dihydrochloride], the fold induction at 50 µM with K. pneumoniae (setting [10]) was found to be 0.7; in assay [1] (setting [11]), 0.8; in the assay on E. cloacae (setting [12]), 1.1; in the assay with E. faecium (setting [13]), 0.9; in the assay with P. aeruginosa (setting [14]), 0.7; in assay [2] (setting [15]) it was 0.6. Further, the fold induction at 50 µM in the assay with E. coli (384-well format, cutoff for positive-scoring molecules 3-fold increase, read-out: AK-based Prestwick Library Screening Results, E. coli (increase in extracellular AK activity)) worked out at 0.9.

As for `CC(C)(C)NC(=O)[C@@H]1C[C@@H]2CCCC[C@@H]2CN1C[C@@H](O)[C@H](Cc1ccccc1)NC(=O)[C@H](CC(N)=O)NC(=O)c1ccc2ccccc2n1` [Saquinavir mesylate], the fold induction at 50 µM was determined as 1.1 in the assay on K. pneumoniae (planktonic K. pneumoniae, […], read-out: AK-based Prestwick library screening result, K. pneumoniae (fold increase in extracellular AK activity)); 1.5 in assay [1] (planktonic A. baumannii, […], read-out: AK-based Prestwick library screening result, A. baumannii (fold increase in extracellular AK activity)); 1.8 in the assay on E. cloacae (planktonic E. cloacae, […], read-out: AK-based Prestwick library screening result, E. cloacae (fold increase in extracellular AK activity)); 1.2 in the assay on E. faecium (planktonic E. faecium, […], read-out: AK-based Prestwick library screening result, E. faecium (fold increase in extracellular AK activity)); 1 in the assay with P. aeruginosa (planktonic P. aeruginosa, […], read-out: AK-based Prestwick library screening result, P. aeruginosa (fold increase in extracellular AK activity)); 0.9 in assay [2] (planktonic S. aureus, […], read-out: AK-based Prestwick library screening result, S. aureus (fold increase in extracellular AK activity)). Further, in the assay on E. coli (planktonic E. coli, […], read-out: AK-based Prestwick library screening result, E. coli (fold increase in extracellular AK activity)), the fold induction at 50 µM was determined as 1.3.

For the compound `COCC(=O)Nc1c(I)c(C(=O)NCC(O)CO)c(I)c(C(=O)N(C)CC(O)CO)c1I` (stereo not shown) [Iopromide], the fold induction at 50 µM in the assay on K. pneumoniae (setting [16]) turned out to be 1.1; in assay [1] (setting [17]), 1.1; in the assay with E. cloacae (setting [18]) it was 1.4; in the assay on E. faecium (setting [19]), 1; in the assay on P. aeruginosa (setting [20]), 1.2; in assay [2] (setting [21]), 1.3. In the assay on E. coli (setting [22]), the fold induction at 50 µM stood at 1.2.

Take `CCCC(=O)Nc1ncnc2c1ncn2[C@@H]1O[C@@H]2COP(=O)(O)O[C@H]2[C@H]1OC(=O)CCC` [Bucladesine sodium salt]: the fold induction at 50 µM in the assay on K. pneumoniae (setting [3]) was found to be 0.6; in assay [1] (setting [4]), 0.8; in the assay with E. cloacae (setting [5]), 0.9; in the assay on E. faecium (setting [6]), 0.9; in the assay with P. aeruginosa (setting [7]), 0.8; in assay [2] (setting [8]), 0.7. In addition, the fold induction at 50 µM in the assay on E. coli (setting [9]) was 0.7.
